Read-outs that look alike come from different tables or passages of the source.
Experiments:
mAb 1G5F6 = tested on: mAb 1G5F6; parameters: method as in PMID 31666308; details: DimLe^x-BSA conjugate 1 immobilized; Le^x trisaccharide 7 as reference; --- = No inhibition; cited from earlier work
mAb SH2 [1] = assay: Competitive ELISA: inhibition of mAb SH2 binding to immobilized (DimLe^x)16-BSA conjugate 1; parameters: species or system mouse; details: for IC50: DimLe^x-BSA conjugate 1 immobilized (5 μg/mL), SH2 ascites 1:500; for ∆(∆G): RT ln([I1]/[I2]), reference inhibitor DimLe^x 6; for ∆(∆G) / SH2 ∆(∆G): T = 296 K; for SH2 ∆(∆G): reference inhibitor Le^x 7, --- = No inhibition
Experimental: A MaxiSorp NUNC 96-well ELISA microtiter plate was coated with a dilution of the (DimLe^x)16-BSA conjugate 1 (100 μL per well, 5 μg/mL) in a 10 mM PBS solution at pH 7.1. The plate was covered with sealing tape and incubated at 4 °C overnight. The antigen solution was discarded, and the plate was washed (using ELx405 auto plate washer, 5 × 15 s) with a 10 mM PBS buffer at pH 7.3 containing 0.05% Tween 20. In 1.5 mL Eppendorf tubes, 175 μL dilutions of competitors (concentration ranging from 0.632 mg/mL to 2 mg/mL in 10 mM PBS-0.05% Tween 20) were incubated for 1 h at 23 °C (in the dark) with 175 μL of a solution of SH2 ascites (1:500 dilution in 10 mM PBS-0.05% Tween 20). At the same time, the plate was blocked with 0.05% skim milk in PBS (300 μL per well). After 1 h of incubation at 37 °C, the plate was washed with 10 mM PBS-0.05% Tween 20. Each well then received 100 μL of the competitor-mAb mixture. Three wells were used as the blank control in which the competitor-mAb mixture was not added, rather received 100 μL of 10 mM PBS-0.05% Tween 20. The plate was incubated for 3 h at 23 °C (in the dark). The plate was subsequently washed using the plate washer with PBS-0.05% Tween 20. A dilution of commercially available horseradish peroxidase labeled goat anti-mouse antibody (1:5000 in 10 mM PBS-0.05% Tween 20, 100 μL per well) was added to each well. After 1 h of incubation at 23 °C (in the dark), the plate was washed with 10 mM PBS-0.05% Tween 20. A solution of the chromogenic substrate TMB (100 μL per well) was added. After a 10 min incubation period at 23 °C (in the dark), 100 μL of 5% Phosphoric Acid stop solution was added to the wells to quench the reaction. The absorbance values were read at 450 nm employing a PowerWave XS plate reader. All samples were prepared in triplicate. The absorbance values were plotted as the percentage inhibition against an increasing concentration of competitor, calculated using wells containing no competitor as the reference point. The values were fitted to a 4-parameter logistics sigmoidal equation: y = y0 + a/[1 + (x/x0)^b] using Sigma Plot 10.0. The concentration of each analogue required for 50% inhibition (IC50) of Le^x-SH2 binding and the corresponding changes in free energy Δ(ΔG) of binding (kcal·mol^−1) using DimLe^xOPr 6 (Table 1) or Le^xOMe 7 (Table 2) as the reference were calculated.

mAb SH1 = details: cited from earlier work; for SH1 ∆(∆G): Le^x-BSA conjugate 4 immobilized, Le^x trisaccharide 7 as reference, --- = No inhibition
mAb SH2 [2] = assay: Indirect titration ELISA of SH2 ascites against coated glycoconjugates; assay type: binding, mouse; details: for Binding of SH2 to coated antigen (titration, in words): antigens coated at 10 μg/mL, 2 and 5 also at 20 µg/mL (not shown)
Experimental: MaxiSorp NUNC 96-well enzyme-linked immunosorbent assay (ELISA) microtiter plate (Thermo Fisher Scientific) was coated with a dilution of glycoconjugates 1–5 and BSA (100 μL per well, […]) in a 10 mM phosphate-buffered saline (PBS) solution at pH 7.1. The plate was covered with sealing tape and incubated at 4 °C overnight. The antigen solution was discarded, and the plate was washed (using ELx405 auto plate washer, 5 × 15 s) with a 10 mM PBS buffer at pH 7.3 containing 0.05% Tween 20. The plate was blocked with 0.05% skim milk in 10 mM PBS (300 μL per well) and incubated for 1 h at 37 °C. The plate was then washed with 10 mM PBS-0.05% Tween 20. A 1:100 dilution of SH2 ascites was prepared and 146 μL of the dilution was distributed in the wells corresponding to the primary dilution. All other wells received 100 μL of the 10 mM PBS-0.05% Tween 20 pH 7.3 buffer. In-plate serial dilutions were performed in which 46 μL of the primary dilution was pipetted downward along the rows. The well contents were mixed by rinsing the pipette tips (7×). Lastly, 46 μL of the mAb solution was removed and discarded from the wells, which received the final solution of mAb (final volume in all wells, 100 μL). The last row of the 96-well plate was used as the blank control. MAb SH2 ascites were not pipetted into these wells, rather 100 μL of 10 mM PBS-0.05% Tween 20 was added. The plate was incubated for 2 h at 23 °C (in the dark). The plate was subsequently washed using the plate washer with PBS-0.05% Tween 20. A dilution of commercially available horseradish peroxidase labeled goat anti-mouse antibody (Mandel Scientific) (1:5000 in 10 mM PBS-0.05% Tween 20, 100 μL per well) was added to each well. After 1 h of incubation at 23 °C (in the dark), the plate was washed with PBS-0.05% Tween 20. A solution of the chromogenic substrate 3,3′,5,5′-tetramethylbenzidine (TMB) (Mandel Scientific) (100 μL per well) was added. After a 10 min incubation period at 23 °C (in the dark), 100 μL of 5% Phosphoric Acid stop solution was added to the wells to quench the reaction. The absorbance values were read at 450 nm employing a PowerWave XS plate reader. All samples were prepared in triplicate. The absorbance values were plotted against an increasing serum dilution. The values were fitted to a 4-parameter logistics sigmoidal equation: y = y0 + a/[1 + (x/x0)^b] using Sigma Plot®® 10.0.

[3] = Table 1, read-out: IC50 (concentration of inhibitor required for 50% inhibition)

Compound	1G5F6 ∆(∆G) (mAb 1G5F6) [kcal/mol]	IC50 (mAb SH2 [1]; Table 2, read-out: SH2 IC50) [µM]	SH2 ∆(∆G) (mAb SH2 [1]; Table 2) [kcal/mol]	SH1 ∆(∆G) (mAb SH1) [kcal/mol]	further results
COC1OC(CO)C(OC2OC(CO)C(O)C(O)C2O)C(OC2OC(C)C(O)C(O)C2O)C1NC(C)=O (stereo not drawn) [compound 16, GlcLe^x]	2.7	> 1800	–	–	Inhibition of SH2 binding to (DimLe^x)16-BSA by soluble oligosaccharide (in words) (mAb SH2 [1]): no inhibition; Binding by SH1 (in words) (mAb SH1; galactose of Le^x replaced by glucose): total loss of binding
CO[C@@H]1O[C@H](CO)[C@@H](O[C@@H]2O[C@H](CO)[C@H](O)[C@H](O[C@@H]3O[C@H](CO)[C@@H](O)[C@H](O)[C@H]3NC(C)=O)[C@H]2O)[C@H](O[C@@H]2O[C@@H](C)[C@@H](O)[C@@H](O)[C@@H]2O)[C@H]1NC(C)=O [compound 10, GlcNAc[1,3″]Le^x]	–	–	–	–	IC50 (mAb SH2 [1]; [3]): 18600 µM; ∆(∆G) (mAb SH2 [1]; Table 1): 2.1 kcal/mol
(DimLe^x)16-BSA [compound 1]	–	–	–	–	Titration curve of SH2 (in words) (mAb SH2 [2]; coating with 3 µg/mL of the conjugate (Figure S1)): did not reach maximum optical density; Inhibition of SH2 binding to (DimLe^x)16-BSA by glycoconjugates as soluble inhibitors (in words) (mAb SH2 [1]; (DimLe^x)16-BSA 1 immobilized, SH2 serum dilution 1:500 (Figure 5)): able to inhibit binding
CO[C@@H]1O[C@H](CO)[C@@H](O[C@@H]2O[C@H](CO)[C@H](O)[C@H](O)[C@H]2O)[C@H](O[C@@H]2O[C@@H](C)[C@H](O)[C@@H](O)[C@H]2O)[C@H]1NC(C)=O [compound 17, RhaLe^x]	1.6	827	1.7	1.1	–
CO[C@@H]1O[C@H](CO)[C@@H](O[C@@H]2O[C@H](CO)[C@H](O)[C@H](O)[C@H]2O)[C@H](O[C@@H]2O[C@@H](C)[C@H](O)[C@@H](O)[C@H]2O)[C@H]1O [compound 18, RhaLac]	3.2	> 1800	–	1.5	Inhibition of SH2 binding to (DimLe^x)16-BSA by soluble oligosaccharide (in words) (mAb SH2 [1]): no inhibition
CO[C@@H]1O[C@H](CO)[C@@H](O[C@@H]2O[C@H](CO)[C@H](O)[C@H](O)[C@H]2O)[C@H](O[C@@H]2O[C@@H](C)[C@@H](O)[C@@H](O)[C@@H]2O)[C@H]1NC(C)=O [compound 7, Le^x methyl glycoside]	0	–	0	0	IC50 (mAb SH2 [1]; [3]): 47 µM; ∆(∆G) (mAb SH2 [1]; Table 1): -1.4 kcal/mol
CO[C@@H]1O[C@H](CO)[C@@H](O[C@@H]2O[C@H](CO)[C@H](F)[C@H](O)[C@H]2O)[C@H](O[C@@H]2O[C@@H](C)[C@@H](O)[C@@H](O)[C@@H]2O)[C@H]1O [compound 22, 4″-FLe^x]	-0.1	17	-0.6	2.1	–
CO[C@@H]1O[C@H](CO)[C@@H](O[C@@H]2O[C@H](CO)C[C@H](O)[C@H]2O)[C@H](O[C@@H]2O[C@@H](C)[C@@H](O)[C@@H](O)[C@@H]2O)[C@H]1O [compound 20, 4″-HLe^x]	0.3	74	0.3	1.3	–
CO[C@@H]1O[C@H](CO)[C@@H](O[C@@H]2O[C@H](CO)[C@H](Cl)[C@H](O)[C@H]2O)[C@H](O[C@@H]2O[C@@H](C)[C@@H](O)[C@@H](O)[C@@H]2O)[C@H]1O [compound 21, 4″-ClLe^x]	0.3	19	-0.5	1.6	–
CO[C@@H]1O[C@H](CO)[C@@H](O[C@@H]2O[C@H](CO)[C@H](OC)[C@H](O)[C@H]2O)[C@H](O[C@@H]2O[C@@H](C)[C@@H](O)[C@@H](O)[C@@H]2O)[C@H]1O [compound 19]	–	148	0.7	–	–
CC(=O)NC1C(OC2C(O)C(O)OC(CO)C2O)OC(CO)C(OC2OC(CO)C(O)C(O)C2O)C1OC1OC(C)C(O)C(O)C1O (stereo not drawn) [compound 9, Lex[1,3]Gal, reference compound]	–	–	–	–	IC50 (mAb SH2 [1]; [3]): 529 µM; ∆(∆G) (mAb SH2 [1]; Table 1): 0.03 kcal/mol
(GDimLe^x)16-BSA [compound 5]	–	–	–	–	Binding of SH2 to coated antigen (titration, in words) (mAb SH2 [2]): no binding
(DimLe^x)6-TT [compound 2]	–	–	–	–	Binding of SH2 to coated antigen (titration, in words) (mAb SH2 [2]): very little binding
bovine serum albumin [BSA, reference compound]	–	–	–	–	Binding of SH2 to coated antigen (titration, in words) (mAb SH2 [2]): no affinity
CO[C@@H]1O[C@H](CO)[C@@H](O[C@@H]2O[C@H](CO)[C@H](O)[C@H](O)[C@H]2O)[C@H](O[C@@H]2O[C@@H](C)[C@@H](O)[C@@H](O)[C@@H]2O)[C@H]1O [compound 15, LacLe^x]	2.5	> 1800	–	0.2	Inhibition of SH2 binding to (DimLe^x)16-BSA by soluble oligosaccharide (in words) (mAb SH2 [1]): no inhibition
CCCCCCO[C@@H]1O[C@H](CO)[C@@H](O[C@@H]2O[C@H](CO)[C@H](O)[C@H](O[C@@H]3O[C@H](CO)[C@@H](O[C@@H]4O[C@H](CO)[C@H](O)[C@H](O)[C@H]4O)[C@H](O)[C@H]3NC(C)=O)[C@H]2O)[C@H](O[C@@H]2O[C@@H](C)[C@@H](O)[C@@H](O)[C@@H]2O)[C@H]1NC(C)=O [compound 13, LacNAc[1,3″]Lex]	–	–	–	–	Inhibition of SH2 binding to (DimLe^x)16-BSA by soluble oligosaccharide (in words) (mAb SH2 [1]): lack of competitive binding
CCCCCO[C@@H]1O[C@H](CO)[C@@H](O[C@@H]2O[C@H](CO)[C@H](O)[C@H](O[C@@H]3O[C@H](CO)[C@@H](O)[C@H](O[C@@H]4O[C@@H](C)[C@@H](O)[C@@H](O)[C@@H]4O)[C@H]3NC(C)=O)[C@H]2O)[C@H](O[C@@H]2O[C@@H](C)[C@@H](O)[C@@H](O)[C@@H]2O)[C@H]1NC(C)=O [compound 14, Fuc[1,3,]GlcNAc[1,3″]Le^x]	–	–	–	–	Inhibition of SH2 binding to (DimLe^x)16-BSA by soluble oligosaccharide (in words) (mAb SH2 [1]): lack of competitive binding
CCCO[C@@H]1O[C@H](CO)[C@@H](O[C@@H]2O[C@H](CO)[C@H](O)[C@H](O[C@@H]3O[C@H](CO)[C@@H](O[C@@H]4O[C@H](CO)[C@H](O)[C@H](O)[C@H]4O)[C@H](O[C@@H]4O[C@@H](C)[C@@H](O)[C@@H](O)[C@@H]4O)[C@H]3NC(C)=O)[C@H]2O)[C@H](O[C@@H]2O[C@@H](C)[C@@H](O)[C@@H](O)[C@@H]2O)[C@H]1NC(C)=O [compound 6, DimLe^x propyl hexasaccharide]	–	–	–	–	IC50 (mAb SH2 [1]; [3]): 503 µM; ∆(∆G) (mAb SH2 [1]; Table 1): 0 kcal/mol
